Legend:
HCT-116 xenografts = assay: HCT-116 xenograft in nude mice, tumor volume; assay type: in vivo; conditions: for effect of sequential addition on tumor volume: day 19
Description: All animal experiments were done in strict adherence to the Swiss law for animal protection. Female Crl:NU(NCr)-Foxn1nu mice were purchased from Charles River Laboratories International Inc (Germany) and kept in a pathogen-controlled environment. Subcutaneous tumors of HCT-116 (KRAS mutant, PIK3CA mutant, p53 wild-type) were induced by concentrating 3 million cells in 100 μl of PBS and injecting them in the right flank of nude mice. The mice were randomly grouped, and treatment was started when the tumor size reached 50 to 250 mm3. Each cohort included 8 mice. Tumor sizes were monitored three times weekly, and volumes were calculated with the following formula: (mm3)=length×width2×0.5.
COMPOUND A was dissolved in 0.5% hydroxypropyl methylcellulose, COMPOUND B was dissolved in 1% carboxymethylcellulose containing 0.5% Tween-80% in distilled water (pH7.6-8.0), and COMPOUND C was dissolved in Microemulsion pre-concentrate 5. All drugs were dosed orally using 5-10 ml/kg. COMPOUND A was administered three times a week (3qw) at 100 mg/kg. COMPOUND B and COMPOUND C were administered daily (q24 h) at 0.3 and 100 mg/kg, respectively. The combination dosing schedule and dosage were the same as the single reagents.
Six treatment cohorts (G1-G6) were tested: • G1: vehicle (DMSO) • G2: COMPOUND C • G3: COMPOUND A=>after 9 days treatment COMPOUND C was added • G4: COMPOUND B=>after 9 days treatment COMPOUND C was added • G5: COMPOUND A+COMPOUND B=>after 9 days treatment COMPOUND C was added • G6: COMPOUND A+COMPOUND B+COMPOUND C
For each tumor at each time-point the size was normalized to the size before the start of the treatment to obtain the “% Change tumor volume” (FIG. 17-18, y-axis). For FIG. 17 at each time point the mean size of all tumors per cohort was calculated, and the error of the size using the standard error of the mean (SEM). For FIG. 18 p-values were calculated using a one-tailed t test.

LS-180 [1] = assay: Cell proliferation, cell count by microscopy, HSA synergy (Examples 2-9); assay type: cell-based; conditions: 72 h, cell count relative to DMSO
Description: (§1) After 24 h one 384-well plate per cell line was prepared for cell counting by microscopy (see below) without receiving treatment (=‘baseline’). The other cell plates were treated by transferring 25 nl of the 2000× compound from drug master plates using an ATS acoustic liquid dispenser (ECD Biosystems) and resulting in a final 1× concentration. COMPOUND A was used over a final concentration range of 13 nM-10 µM, COMPOUND B was used over a final concentration range of 13 nM-10 uM, and COMPOUND C was used over a final concentration range of 0.4 nM-0.3 µM (7 1:3 dilution steps). In order to assess the effect of the triple combination all individual COMPOUNDS (A, B, C), all three pair wise combinations (A+B, A+C, B+C), and the triple combination (A+B+C) were tested in the same experiment. Pair wise combinations and the triple combination were tested at a fixed ratio of 1:1 (for drug pairs) and 1:1:1 (for the drug triple) at each dilution resulting in 7 combination conditions per treatment. […] After compound addition 50 nl of 2 mM CellEvent Caspase-3/7 Green Detection Reagent (ThermoFisher, Catalog number C10423) were added to one of the three replicates using the HP D300 Digital Dispenser (Tecan). Caspase 3/7 induction was measured as a proxy for apoptosis induced by the treatments. Cells were treated for 72 h to 96 h depending on their doubling time (Table 4), and Caspase 3/7 activation was measured every 24 h by microscopy using an InCell Analyzer 2000 (GE Healthcare) equipped with a 4× objective and FITC excitation/emission filters. At the end of the treatment cells were prepared for cell counting by microscopy. Cells were fixed and permeabilised for 45 minutes in 4% PFA (Electron Microscopy Sciences, Catalog number 15714), 0.12% TX-100 (Electron Microscopy Sciences, Catalog number 22140) in PBS (Boston Bioproducts, Catalog number BM-220). After washing cells three times with PBS their DNA was stained for 30 minutes with Hoechst 33342 (ThermoFisher, Catalog number H3570) at a final concentration of 4 μg/ml. Cells were washed three times with PBS and then plates were heat-sealed using a PlateLoc (Agilent Technologies) with aluminum seals (Agilent Technologies, Catalog number 06644-001) and stored at 4° C. until imaging. All cells per well/treatment were captured in a single image by fluorescence microscopy using an InCell Analyzer 2000 (GE Healthcare) equipped with a 4× objective and DAPI excitation/emission filters.
(§2) Images were analyzed after adapting previously described methods (Horn, Sandmann et al. 2011) and using the Bioconductor package EBimage in R (Pau, Fuchs et al. 2010). Objects in both channels, DAPI (for Hoechst/DNA) and FITC (for Caspase 3/7), were segmented separately by adaptive thresholding and counted. A threshold for Caspase 3/7 positive objects was defined manually per cell line after comparing negative controls (DMSO) and positive controls (Staurosporine). By analyzing 17 additional object/nuclei features in the DNA channel (shape and intensity features) debris/fragmented nuclei were identified. To this end per cell line the distributions of the additional features between positive controls (Staurosporine) and negative controls (DMSO) were compared manually. Features that could differentiate between the conditions (e.g. a shift in the distribution of a feature measurement comparing DMSO with Staurosporine) where used to define the ‘debris’ population versus the population of ‘viable’ nuclei. The debris counts were subtracted from raw nuclei counts. The resulting nuclei number was used as measure of cell proliferation (‘cell count’).
(§3) The compound's effect on cell proliferation was calculated from the cell counts of the treatments relative to the cell counts of the negative control (DMSO), in FIG. 9 denoted as ‘Normalized cell count’ (=‘xnorm’) on the y-axis. Synergistic combinations were identified using the highest single agent model (HSA) as null hypothesis (Berenbaum 1989).

RKO [2] = assay: as above; assay type: cell-based; conditions: 72 h, cell count relative to DMSO
Description: as §1, §2, §3

GP2d [3] = assay: as above; assay type: cell-based; conditions: Example 2, single agent, 72 h, cell count relative to DMSO
Description: as §1, §2, §3

LoVo [4] = assay: as above; assay type: cell-based; conditions: Example 2, single agent, 96 h, cell count relative to DMSO
Description: as §1, §2, §3

HCT-116 = assay: as above; assay type: cell-based; conditions: 72 h, cell count relative to DMSO
Description: as §1, §2, §3

LS-180 [5] = assay: Cell proliferation, cell count by microscopy (Example 1); assay type: cell-based; conditions: ls180, single agent, 72 h treatment, cell count relative to DMSO
Description: (§4) To test the effect of the combination of COMPOUND A or COMPOUND B with COMPOUND C on cell proliferation cells were plated in black 384-well microplates with clear bottom (Matrix/Thermo Scientific, Catalog number 4332) in 50 ul media per well at cell densities between 500 and 1250 cells/well (Table 1) and allowed to incubate at 37 degrees, 5% CO2 for 24 h. After 24 h one 384-well plate per cell line was prepared for cell counting by microscopy (see below) without receiving treatment (=‘baseline’). The other cell plates were treated using a HP D300 Digital Dispenser (Tecan) generating 6-point dose response curves with 2.5× dilution steps.
(§5) COMPOUND A was used over a final concentration range of 51 nM-5 uM, COMPOUND B over a final concentration range of 10 nM-1 uM, and COMPOUND C over a final concentration range of 1 nM-100 nM.
(§6) For the combinations of COMPOUND A or COMPOUND B with COMPOUND C the single agents were combined at 6 single agent doses generating a dose matrix of 6×6=36 combination treatments. Additionally, negative controls (DMSO=‘vehicle’) and positive controls (Staurosporine=killing cells, 7-point 1:2 dilution series for a dose range of 16 nm-1 uM) were transferred as treatment controls. Cells were treated for 72 h to 96 h depending on their doubling time (Table 1). At the end of the treatment cells were prepared for cell counting by microscopy. Cells were fixed and permeabilised for 45 minutes in 4% PFA (Electron Microscopy Sciences, Catalog number 15714), 0.12% TX-100 (Electron Microscopy Sciences, Catalog number 22140) in PBS (Boston Bioproducts, Catalog number BM-220). After washing cells three times with PBS their DNA was stained for 30 minutes with Hoechst 33342 (ThermoFisher, Catalog number H3570) at a final concentration of 4 μg/ml. Cells were washed three times with PBS and then plates were heat-sealed using a PlateLoc (Agilent Technologies) with aluminum seals (Agilent Technologies, Catalog number 06644-001) and stored at 4° C. until imaging. All cells per well/treatment were captured in a single image by fluorescence microscopy using an InCell Analyzer 2000 (GE Healthcare) equipped with a 4× objective and DAPI excitation/emission filters.
as §2
(§7) The compound's effect on cell proliferation was calculated from the cell counts of the treatments relative to the cell counts of the negative control (DMSO), in FIGS. 1 and 2 denoted as ‘Normalized cell count’ on the y-axis.

SW48 = assay: as above; assay type: cell-based; conditions: single agent, 96 h treatment, cell count relative to DMSO
Description: as §4, §5, §6, §2, §7

RKO [6] = assay: as above; assay type: cell-based; conditions: single agent, 72 h treatment, cell count relative to DMSO
Description: as §4, §5, §6, §2, §7

GP2d [7] = assay: as above; assay type: cell-based; conditions: single agent, 72 h treatment, cell count relative to DMSO
Description: as §4, §5, §6, §2, §7

COLO-678 = assay: as above; assay type: cell-based; conditions: colo678, single agent, 96 h treatment, cell count relative to DMSO
Description: as §4, §5, §6, §2, §7

LoVo [8] = assay: as above; assay type: cell-based; conditions: single agent, 96 h treatment, cell count relative to DMSO
Description: as §4, §5, §6, §2, §7

LIM2405 = assay: as above; assay type: cell-based; conditions: single agent, 72 h treatment, cell count relative to DMSO
Description: as §4, §5, §6, §2, §7

## CC1(C)CCC(c2ccc(Cl)cc2)=C(CN2CCN(c3ccc(C(=O)NS(=O)(=O)c4ccc(N[C@H](CCN5CCOCC5)CSc5ccccc5)c(S(=O)(=O)C(F)(F)F)c4)cc3)CC2)C1 [ABT-263]
HCT-116 xenografts; ABT-263 100 mg/kg q24h added after 9 days to single agent COMPOUND A (G3)
  effect of sequential addition on tumor volume: no additional benefit
HCT-116 xenografts; ABT-263 100 mg/kg q24h added after 9 days to single agent trametinib (G4)
  effect of sequential addition on tumor volume: stopped tumor progression
HCT-116 xenografts; ABT-263 100 mg/kg q24h added after 9 days to the combination of COMPOUND A and trametinib (G5)
  effect of sequential addition on tumor volume: marked tumor regressions

## CC1(C)CCC(c2ccc(Cl)cc2)=C(CN2CCN(c3ccc(C(=O)NS(=O)(=O)c4ccc(N[C@H](CCN5CCOCC5)CSc5ccccc5)c(S(=O)(=O)C(F)(F)F)c4)cc3)CC2)C1 [COMPOUND C]
LS-180 [1]; Example 2, single agent
  IC50: > 10 µM
LS-180 [1]; Example 3, single agent
  IC50: > 10 µM
LS-180 [1]; Example 4, single agent
  IC50: > 10 µM
RKO [2]; Example 2, single agent
  IC50: > 10 µM
RKO [2]; Example 3, single agent
  IC50: > 10 µM
RKO [2]; Example 4, single agent
  IC50: > 10 µM
GP2d [3]
  IC50: > 10 µM
LoVo [4]
  IC50: > 10 µM
HCT-116; Example 2, single agent
  IC50: > 10 µM
HCT-116; Example 3, single agent
  IC50: > 10 µM
HCT-116; Example 4, single agent
  IC50: > 10 µM

## CC(=O)Nc1cccc(-n2c(=O)n(C3CC3)c(=O)c3c(Nc4ccc(I)cc4F)n(C)c(=O)c(C)c32)c1 [trametinib, N-(3-{3-cyclopropyl-5-[(2-fluoro-4-iodophenyl)amino]-6,8-dimethyl-2,4,7-trioxo-3,4,6,7-tetrahydropyrido[4,3-d]pyrimidin-1(2H)-yl}phenyl)acetamide]
HCT-116 xenografts; nude mice, oral, COMPOUND A 100 mg/kg 3qw, trametinib 0.3 mg/kg q24h, ABT-263 100 mg/kg q24h, 9 days of treatment
  tumor response (% change tumor volume): progressive disease
LS-180 [5]
  IC75: 0.014
SW48
  IC75: 0.003
RKO [6]
  IC75: >0.1
GP2d [7]
  IC75: >0.1
COLO-678
  IC75: >0.1
LoVo [8]
  IC75: 0.018
LIM2405
  IC75: 0.008
